“Also recorded” adds a separate entry of the source.
Tests used:
[1] = system: various asynchronously growing cell lines (HeLa, Jurkat, RD, PBMCs, U937); assay: Cell viability (MTT assay, P1/Annexin V staining); type: cell-based; design: viability: dose or concentration left out as unconfirmed
Experimental: (§1) (A) Cell viability was measured via the MTT assay after 48 hours of treatment. (B) TNF-α levels were measured 48 hours post LPS (5 μg/ml) stimulation. (C) CD4 T cells were stimulated with either ConA (10 μg/ml) or anti-CD3/CD28 beads (10 μg/ml), and proliferation was measured via 3H-thymidine incorporation.
VGX-1027 was tested for whether its effects were cell-type-specific.

[2] = Plasma pharmacokinetics after intraperitoneal administration; type: in vivo; details: mouse, ip, mice, i.p. 20 mg/kg
Experimental: To determine the pharmacokinetic properties of VGX-1027, drug concentrations were analyzed in the plasma of mice. The drug was measured post intraperitoneum administration at 20 mg/kg […] in 500 mM Na2HPO4, which is a therapeutically active concentration. […] Based on the linear part of the pharmacokinetic profile, the t1/2 of VGX-1027 is approximately 90 minutes.

[3] = target: CYP450 1A2 (Homo sapiens, UniProt P05177); assay: CYP450 inhibition; type: in vitro ADME
Experimental: (§2) The highest plasma concentrations generally occurred in 1-2 hours. […] The highest level of inhibition was ˜35% for 2C19 at a 30 μM concentration. […] Lastly, VGX-1027 is stable in human liver S9 fractions (with phase 1 and 2 cofactors) with t1/2>90 minutes, which indicates a low likelihood of metabolism in the liver.

[4] = target: CYP450 2C19 (Homo sapiens, UniProt P33261); assay: CYP450 inhibition; type: in vitro ADME; details: 2C19
Experimental: as §2

[5] = target: CYP2C19 (Homo sapiens, UniProt P33261); assay: CYP450 inhibition; type: in vitro ADME; details: human; 2C19 at 30 μM; read-out: highest level of inhibition
Experimental: as §2

[6] = target: CYP450 2D6 (Homo sapiens, UniProt P10635); assay: CYP450 inhibition; type: in vitro ADME
Experimental: as §2

[7] = target: CYP450 2C9 (Homo sapiens, UniProt P11712); assay: CYP450 inhibition; type: in vitro ADME
Experimental: as §2

[8] = target: CYP450 3A4 (Homo sapiens, UniProt P08684); assay: CYP450 inhibition; type: in vitro ADME
Experimental: as §2

[9] = system: splenic mononuclear cells (SMNC); assay: In vitro proliferation and cytokine synthesis of splenic mononuclear cells; type: cell-based, mice
Text: Peritoneal macrophages (PM) and splenic mononuclear cells (SMNC) were isolated from normal mice, cultured in nutrient medium and stimulated with LPS and/or ConA in the absence or presence of VGX-1027. […] VGX-1027 had no effect on MIF expression in either cell type, on proliferation of SMNC, and on IL-10 and Interferon (IFN) γ production by SMNC.

[10] = system: STAT3; assay: IL-6 induced STAT3 phosphorylation in CD4+ T cells (Western blot); type: cell-based; details: IL-6 20 ng/ml, 10 uM
Experimental: FIG. 17. Western blot (A) and relative densitometric analysis (B) of the levels of phospho-STAT3 in CD4+ T cells after stimulation with IL-6.
In vitro T-cell treatment: Naive, sorted CD4+ T cells were obtained from the University of Pennsylvania School of Medicine, Immunology Clinical Core, cultured in vitro with IL-6 (20 ng/ml) in the presence or absence of VGX1027 (10 uM) for 0, 30 min, 1 hr, 2 hrs and 5 hrs. At the end of the incubation period, cells were lysed for 30 min at 4° C. by using the Nonidet P-40 lysis buffer (Invitrogen) supplemented with a phosphatase inhibitor mixture (PhosSTOP) and a protease inhibitor mixture (Complete) as directed by the manufacturer (Roche Applied Science). Lysates were collected and spun at 10,000 rpm for 5 min at 4° C., and then, 50 ug of proteins were mixed with 2× sample buffer (Invitrogen) for subsequent 4-12% SDS-PAGE electrophoresis. Afterward, proteins were transferred to nitrocellulose using the iBlot Dry Blotting System (Invitrogen), immunodetection was performed with the SNAP i.d. Protein Detection System (Millipore) using specific p-STAT3 and STAT3 monoclonal antibodies (Cell Signaling), and the expressed proteins were visualized with HRP-conjugated goat antimouse IgG using an ECL detection system (Amersham Biosciences, Piscataway, N.J.).

[11] = system: Peritoneal macrophages (PM); assay: Ex vivo cytokine synthesis by PM from treated mice; type: cell-based
Experimental: These experiments were carried out to explore if intraperitoneal (i.p.) or oral administration (p.o.) in mice with VGX-1027 could influence the proliferative response of SMNC and the production of IL-1β, IL-10, TNF-α, IFN-γ and MIF from isolated PM and SMNC. PM and SMNC isolated from mice treated in vivo with VGX-1027 for 7 consecutive days intraperitoneally (0.5 mg/mouse), or orally (2.5 mg/mouse), or isolated from control animals that received VGX-1027 vehicle (Na2HPO4/H2O), or were without any treatment. 24 h after the last VGX-1027 treatment, PM and SMNC were collected for further in vitro stimulation and analysis.

[12] = system: U937s, RAWs, primary monocytes, PBMCs, Jurkats, undifferentiated CD4 T cells, 293Ts, RD cells; assay: LPS-induced TNF-α production in different cell types; type: cell-based
Experimental: as §1
Next, the production of TNF-α was measured following LPS stimulation in these different cell types. […] VGX-1027-induced effects were not observed.

Sequence of CYP450 1A2 (P05177 whole entry): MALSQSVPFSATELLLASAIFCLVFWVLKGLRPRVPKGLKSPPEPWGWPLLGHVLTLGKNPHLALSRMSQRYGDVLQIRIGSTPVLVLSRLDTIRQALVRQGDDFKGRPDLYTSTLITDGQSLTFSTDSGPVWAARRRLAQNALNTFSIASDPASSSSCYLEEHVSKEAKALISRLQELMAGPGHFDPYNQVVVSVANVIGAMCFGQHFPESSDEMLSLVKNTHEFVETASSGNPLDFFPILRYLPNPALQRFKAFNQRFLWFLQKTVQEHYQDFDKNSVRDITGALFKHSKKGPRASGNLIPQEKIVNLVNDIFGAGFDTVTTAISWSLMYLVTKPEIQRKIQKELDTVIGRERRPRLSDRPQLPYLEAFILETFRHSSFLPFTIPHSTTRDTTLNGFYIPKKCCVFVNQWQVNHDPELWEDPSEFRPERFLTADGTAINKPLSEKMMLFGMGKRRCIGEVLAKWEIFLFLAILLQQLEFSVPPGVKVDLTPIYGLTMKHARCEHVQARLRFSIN
Sequence of CYP2C19 (P33261 whole entry): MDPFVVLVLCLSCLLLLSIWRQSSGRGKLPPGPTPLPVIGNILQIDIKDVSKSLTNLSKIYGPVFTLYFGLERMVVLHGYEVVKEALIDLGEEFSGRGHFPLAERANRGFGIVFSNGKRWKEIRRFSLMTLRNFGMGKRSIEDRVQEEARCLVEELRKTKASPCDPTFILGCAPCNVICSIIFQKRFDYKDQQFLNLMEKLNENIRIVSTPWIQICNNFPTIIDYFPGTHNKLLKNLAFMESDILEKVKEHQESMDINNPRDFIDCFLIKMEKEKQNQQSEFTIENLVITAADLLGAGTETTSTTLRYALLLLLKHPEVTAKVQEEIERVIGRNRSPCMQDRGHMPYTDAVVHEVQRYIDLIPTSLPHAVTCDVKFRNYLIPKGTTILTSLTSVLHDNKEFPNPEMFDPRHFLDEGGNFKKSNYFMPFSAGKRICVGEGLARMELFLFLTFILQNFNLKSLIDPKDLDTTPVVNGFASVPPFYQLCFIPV
Sequence of CYP450 2C19 (P33261 whole entry): as above
Sequence of CYP450 2D6 (P10635 whole entry): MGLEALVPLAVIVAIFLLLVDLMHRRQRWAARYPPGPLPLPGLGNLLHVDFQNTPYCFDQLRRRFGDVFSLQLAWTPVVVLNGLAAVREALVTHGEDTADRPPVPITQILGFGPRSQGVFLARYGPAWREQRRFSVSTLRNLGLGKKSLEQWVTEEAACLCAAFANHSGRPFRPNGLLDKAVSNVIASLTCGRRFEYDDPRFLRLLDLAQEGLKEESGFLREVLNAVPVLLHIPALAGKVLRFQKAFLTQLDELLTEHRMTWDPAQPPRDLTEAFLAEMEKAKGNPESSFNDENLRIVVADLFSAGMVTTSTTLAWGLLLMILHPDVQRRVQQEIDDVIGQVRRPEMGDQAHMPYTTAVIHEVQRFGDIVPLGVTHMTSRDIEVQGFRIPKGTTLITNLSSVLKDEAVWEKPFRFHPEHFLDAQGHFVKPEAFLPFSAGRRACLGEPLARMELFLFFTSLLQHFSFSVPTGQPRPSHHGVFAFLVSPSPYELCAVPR
Sequence of CYP450 3A4 (P08684 whole entry): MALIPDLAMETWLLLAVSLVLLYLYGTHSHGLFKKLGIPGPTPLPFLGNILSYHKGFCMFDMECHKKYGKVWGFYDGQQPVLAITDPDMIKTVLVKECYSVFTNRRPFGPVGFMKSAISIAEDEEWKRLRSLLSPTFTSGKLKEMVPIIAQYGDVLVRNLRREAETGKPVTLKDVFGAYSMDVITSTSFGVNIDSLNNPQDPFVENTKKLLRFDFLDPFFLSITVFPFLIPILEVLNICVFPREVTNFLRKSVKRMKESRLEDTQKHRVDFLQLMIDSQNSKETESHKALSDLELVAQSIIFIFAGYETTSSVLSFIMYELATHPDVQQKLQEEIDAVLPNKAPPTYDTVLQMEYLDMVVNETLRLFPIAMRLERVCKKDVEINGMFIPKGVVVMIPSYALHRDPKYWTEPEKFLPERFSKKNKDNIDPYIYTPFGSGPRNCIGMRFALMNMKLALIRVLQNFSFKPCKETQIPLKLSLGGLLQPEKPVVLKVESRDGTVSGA
Sequence of CYP450 2C9 (P11712 whole entry): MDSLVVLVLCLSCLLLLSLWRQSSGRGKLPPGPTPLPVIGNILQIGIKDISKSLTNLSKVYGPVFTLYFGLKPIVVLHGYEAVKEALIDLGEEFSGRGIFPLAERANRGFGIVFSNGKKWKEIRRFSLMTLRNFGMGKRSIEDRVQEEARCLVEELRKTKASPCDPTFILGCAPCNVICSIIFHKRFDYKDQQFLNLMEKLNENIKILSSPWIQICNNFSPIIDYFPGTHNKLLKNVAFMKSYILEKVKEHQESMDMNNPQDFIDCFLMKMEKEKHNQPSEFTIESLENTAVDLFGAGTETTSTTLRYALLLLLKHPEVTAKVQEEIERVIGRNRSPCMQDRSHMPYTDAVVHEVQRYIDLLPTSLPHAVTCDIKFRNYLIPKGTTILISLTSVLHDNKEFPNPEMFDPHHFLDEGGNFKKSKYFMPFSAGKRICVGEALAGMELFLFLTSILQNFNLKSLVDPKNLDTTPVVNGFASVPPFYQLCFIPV

O=C(O)CC1CC(c2ccccc2)=NO1 (centres unmarked) [VGX-1027, 3-phenyl-4,5-dihydro-5-isoxazoleacetic acid]
viability ([1]; 48 hours, MTT): Greater than 80%
toxicity to cell lines ([1]; MTT assay and P1/Annexin V staining, up to 100 mM): did not cause toxicity; also recorded: not toxic
Tmax ([2]; 20 mg/kg): 2 h
concentration at 6 h ([2]; after 6 hours post injection, read-out: plasma drug concentration): < 10 µg/mL
concentration at 30 min ([2]; by 30 minutes post injection, read-out: plasma drug concentration): > 80 µg/mL
half-life ([2]; linear part of the profile): ~1.5 h
Cmax ([2]; read-out: peak plasma concentration (Cmax)): 130 µg/mL
CYP450 inhibition [3]: no significant inhibition
CYP450 inhibition [4]: no significant inhibition
inhibition at 30 µM [5]: ~35%
CYP450 inhibition [6]: no significant inhibition
CYP450 inhibition [7]: no significant inhibition
CYP450 inhibition [8]: no significant inhibition
IL-10 production [9]: no effect
Interferon (IFN) γ production [9]: no effect
MIF expression [9]: no effect
proliferation [9]: no effect
TNF-α production ([9]; LPS and/or ConA stimulated): markedly inhibited
magnitude of STAT3 phosphorilation [10]: overall reduction
time of maximum STAT3 activation after IL-6 [10]: 1 h
IL-10 synthesis ([11]; mice treated 7 days): impaired synthesis
TNF-α synthesis ([11]; mice treated 7 days): impaired synthesis
IL-1 β synthesis ([11]; mice treated 7 days i.p. 0.5 mg/mouse or orally 2.5 mg/mouse): impaired synthesis
MIF expression ([11]; mitogenic stimulation): normal pattern
TNF-α production ([12]; 293Ts): did not affect
TNF-α production ([12]; Jurkats): did not affect
LPS-induced TNF-α production ([12]; PBMCs): inhibited
LPS-induced TNF-α production ([12]; RAWs): inhibited
TNF-α production ([12]; RD cells): did not affect
LPS-induced TNF-α production ([12]; U937s): inhibited
LPS-induced TNF-α production ([12]; primary monocytes): inhibited
TNF-α production ([12]; undifferentiated CD4 T cells): did not affect
